# PubChem BioAssay AID1963831 (Molecular Pharmacology Branch, DTP, NCI, 2024)
# Tested on: 889142-216-R-J1-PDC complex spheroid viability
# Test: Anticancer human tumor 889142-216-R-J1-PDC patient-derived bladder carcinoma cell line growth inhibition [POLQ]
# Details: for IC50: curve of first compound; for viability, T/C: stronger effect = lower value
# Description: Multicellular complex tumor spheroid response to Polymerase (POL) inhibitors (novobiocin, ART-558, RP6685) in combination with a variety of drugs and investigational agents in selected tumor cell lines
# The POL inhibitors (novobiocin, ART-558, and RP6685) were evaluated both individually and in combination with standard of care and investigational anticancer small molecules within a complex spheroid model of solid tumors. . Complex spheroids include a stromal component modeled by human endothelial cells (HUVEC) and fibroblasts modeled by human mesenchymal stem cells (MSCs). The concentration ranges selected for each drug and investigational agent were based upon clinically achievable concentrations if the clinical Cmax of the agent was known.
# Compounds. The drugs and investigational agents: novobiocin (NSC847541), ART-558 (NSC835418), RP-6685 (NSC848927), peposertib (NSC802822), ceralasertib (NSC780249), elimusertib (NSC800525), camonsertib (NSC841442), AZD-1390 (NSC803789), olaparib (NSC753686), talazoparib (NSC767125), rucaparib (NSC756644), sotorasib (NSC818433), MRTX-1133 (NSC836407), SN-38 (NSC673596), topotecan (NSC609699), epotoside (NSC141540), doxorubicin (NSC123127), gemcitabine (NSC613327), 5-fluorouracil (NSC19893), paclitaxel (NSC125973), vemurafenib (NSC761431), MSA-2 (NSC828583), SN-011 (NSC837082), adavosertib (NSC754352), prexasertib (NSC758257), carboplatin (NSC241240) and oxaliplatin (NSC266046), were obtained from the National Cancer Institute (NCI) Developmental Therapeutics Program Chemical Repository (21). The FDA-approved anticancer drug set is available from the Developmental Therapeutics Program at https://dtp.cancer.gov/organization/dscb/obtaining/. […] The stock solutions were prepared in dimethyl sulfoxide (DMSO, Sigma-Aldrich, St. Louis, MO, cat. D2650), except for the platinum compounds which were prepared in saline (Quality Biological, Gaithersburg, MD, cat. 114-055-101), at 800-fold the tested concentration and stored at -70 degrees C prior to their use. All drugs and investigational agents were tested over a range starting from a high concentration at or near the clinical Cmax and decreasing in half-log increments. If the clinical Cmax for an agent had not been determined, the highest concentration tested was 10 microM, except for SN-38, which was tested at a high concentration of 1 microM.
# Cell Culture. All cells were maintained in an incubator at 37 degrees C and 5% CO2 with 95% humidity. The PDC lines were cultured according to standard operating procedures established by the NCI PDMR (https://pdmr.cancer.gov). Table 3 of the manuscript, lists the cell lines along with the number of the three cell types plated to form the mct-spheroids and media for tumor cell growth. After thawing, all PDC lines, except 997537-175-T-J1-PDC and 415267-285-R-J2-PDC, were cultured in Matrigel-coated flasks prepared with a working solution of 1X Ham's F-12 nutrient mix, without supplementation (Thermo Fisher Scientific, cat. 11765054), 100 U/mL penicillin-streptomycin (Thermo Fisher Scientific, cat. 15140122), and 2.5% Matrigel (Corning Inc., Corning, NY, cat. 354248) for the first three passages. The two PDC lines 997537-175-T-J1-PDC and 415267-285-R-J2-PDC were cultured on uncoated flasks. The 857933-349-R-J2-PDC line was cultured in 6C/Colon 1B media containing advanced DMEM/F-12 (Thermo Fisher Scientific, cat. 12634028), 10 mM HEPES (Thermo Fisher Scientific, cat. 15630080), 1X GlutaMAX supplement (Thermo Fisher Scientific, cat. 35050061), 0.1 mg/mL primocin (InvivoGen, San Diego, CA, cat. ant-pm-2), 10% defined fetal bovine serum, heat inactivated (HyClone Laboratories Inc., Logan, UT, cat. SH30070.03HI), 50% L-WRN conditioned media (ATCC, cat. CRL-3276), 1.25 mM N-Acetyl-L-cysteine (Sigma-Aldrich, cat. A9165), 10 mM nicotinamide (Sigma-Aldrich, cat. N0636), 1X B-27 supplement (Thermo Fisher Scientific, cat. 17504044), 1X N-2 supplement (Thermo Fisher Scientific, cat. […]
# 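Further: spheroids exposed to compounds for seven days.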
# 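Wherever viability, T/C is given: 100% = DMSO vehicle control viability.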
structure (smiles),measurement,setting,value
CC(=O)O[C@H]1C(=O)[C@@]2(C)[C@H]([C@H](OC(=O)c3ccccc3)[C@]3(O)C[C@H](OC(=O)[C@H](O)[C@@H](NC(=O)c4ccccc4)c4ccccc4)C(C)=C1C3(C)C)[C@]1(OC(C)=O)CO[C@@H]1C[C@@H]2O + COC1C(OC(N)=O)C(O)C(Oc2ccc3c(O)c(NC(=O)c4ccc(O)c(CC=C(C)C)c4)c(=O)oc3c2C)OC1(C)C,IC50,second compound 0.0316 µM,< 9.49 nM
same,IC50,second compound 0.1 µM,< 9.49 nM
same,IC50,second compound 0.316 µM,< 9.49 nM
same,IC50,second compound 1 µM,< 9.49 nM
same,IC50,second compound 3.16 µM,< 9.49 nM
same,IC50,second compound 10 µM,< 9.49 nM
same,"viability, T/C","second compound 0.0316 µM, first compound 0.00949 µM",42%
same,"viability, T/C","second compound 0.0316 µM, first compound 0.03 µM",37.3%
same,"viability, T/C","second compound 0.0316 µM, first compound 0.0949 µM",36.2%
same,"viability, T/C","second compound 0.0316 µM, first compound 0.3 µM",35%
same,"viability, T/C","second compound 0.0316 µM, first compound 0.949 µM",40.6%
same,"viability, T/C","second compound 0.0316 µM, first compound 3 µM",43%
same,"viability, T/C","second compound 0.1 µM, first compound 0.00949 µM",40%
same,"viability, T/C","second compound 0.1 µM, first compound 0.03 µM",29.9%
same,"viability, T/C","second compound 0.1 µM, first compound 0.0949 µM",40.6%
same,"viability, T/C","second compound 0.1 µM, first compound 0.3 µM",34.2%
same,"viability, T/C","second compound 0.1 µM, first compound 0.949 µM",37.4%
same,"viability, T/C","second compound 0.1 µM, first compound 3 µM",38.5%
same,"viability, T/C","second compound 0.316 µM, first compound 0.00949 µM",38.3%
same,"viability, T/C","second compound 0.316 µM, first compound 0.03 µM",37.2%
same,"viability, T/C","second compound 0.316 µM, first compound 0.0949 µM",41.3%
same,"viability, T/C","second compound 0.316 µM, first compound 0.3 µM",32.9%
same,"viability, T/C","second compound 0.316 µM, first compound 0.949 µM",34%
same,"viability, T/C","second compound 0.316 µM, first compound 3 µM",37.4%
same,"viability, T/C","second compound 1 µM, first compound 0.00949 µM",39.9%
same,"viability, T/C","second compound 1 µM, first compound 0.03 µM",40%
same,"viability, T/C","second compound 1 µM, first compound 0.0949 µM",43.9%
same,"viability, T/C","second compound 1 µM, first compound 0.3 µM",37.5%
same,"viability, T/C","second compound 1 µM, first compound 0.949 µM",35.3%
same,"viability, T/C","second compound 1 µM, first compound 3 µM",39.7%
same,"viability, T/C","second compound 3.16 µM, first compound 0.00949 µM",39.1%
same,"viability, T/C","second compound 3.16 µM, first compound 0.03 µM",38.1%
same,"viability, T/C","second compound 3.16 µM, first compound 0.0949 µM",39%
same,"viability, T/C","second compound 3.16 µM, first compound 0.3 µM",39.7%
same,"viability, T/C","second compound 3.16 µM, first compound 0.949 µM",41.2%
same,"viability, T/C","second compound 3.16 µM, first compound 3 µM",40.4%
same,"viability, T/C","second compound 10 µM, first compound 0.00949 µM",41.1%
same,"viability, T/C","second compound 10 µM, first compound 0.03 µM",38.1%
same,"viability, T/C","second compound 10 µM, first compound 0.0949 µM",40.4%
same,"viability, T/C","second compound 10 µM, first compound 0.3 µM",45.2%
same,"viability, T/C","second compound 10 µM, first compound 0.949 µM",38.5%
same,"viability, T/C","second compound 10 µM, first compound 3 µM",39.5%
